Measured values from ChEMBL document CHEMBL4665665, “4-Aryl Pyrrolidines as Novel Orally Efficacious Antimalarial Agents. Part 2: 2-Aryl-N-(4-arylpyrrolidin-3-yl)acetamides” (ACS Med Chem Lett, 2019).
pIC50: −log10 of the molar value. The source made the active and inactive calls. No cut-off for these calls is given here.

Experiments:
Cytochrome P450 2C19 = Cytochrome P450 2C19 (Homo sapiens, UniProt P33261); assay: Inhibition of recombinant human CYP2C19 expressed in baculovirus infected insect cells using s-mephenytoin as substrate incubated for 30 mins in presence of NADPH-regenerating system by fluorescence based assay; assay type: ADME
Chain of Cytochrome P450 2C19 (P33261 whole entry): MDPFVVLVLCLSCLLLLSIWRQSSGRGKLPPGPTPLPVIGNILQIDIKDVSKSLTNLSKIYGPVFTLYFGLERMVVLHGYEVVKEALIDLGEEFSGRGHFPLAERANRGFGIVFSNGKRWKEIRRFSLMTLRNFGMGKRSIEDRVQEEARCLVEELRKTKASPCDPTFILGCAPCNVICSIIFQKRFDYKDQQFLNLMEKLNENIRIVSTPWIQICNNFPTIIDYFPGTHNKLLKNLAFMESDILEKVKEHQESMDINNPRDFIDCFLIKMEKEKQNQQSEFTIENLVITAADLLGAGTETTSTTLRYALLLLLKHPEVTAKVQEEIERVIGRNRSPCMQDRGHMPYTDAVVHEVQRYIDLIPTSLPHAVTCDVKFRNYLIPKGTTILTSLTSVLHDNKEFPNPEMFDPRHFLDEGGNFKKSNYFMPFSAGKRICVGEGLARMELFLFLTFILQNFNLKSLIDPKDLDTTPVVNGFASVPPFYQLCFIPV

[1] = Plasma concentration in NIH mouse infected with Plasmodium chabaudi ASS at 10 mg/kg, po qd for 4 days starting from 4 hrs post-parasite inoculation and measured at 24 hrs post-dosing on day 4 by LC/MS analysis; assay type: ADME, organism-based; conditions: dose 10 mg/kg/day, time 4 day
Plasmodium falciparum [2] = assay: Antimalarial activity against CQ-sensitive Plasmodium falciparum 3D7 incubated for 72 hrs by SYBR Green-1 dye based fluorescence assay; assay type: functional, organism-based; conditions: Plasmodium falciparum, 3D7, 72 h
Plasmodium chabaudi [3] = assay: Antimalarial activity against Plasmodium chabaudi ASS infected in NIH mouse assessed as inhibition of parasitemia at 30 mg/kg, po qd for 4 days starting from 4 hrs post-parasite inoculation and measured at 24 hrs after last-drug treatment by Peter's 4-day suppressive test relative to control; assay type: functional; conditions: 96 h
[4] = Plasma concentration in NIH mouse infected with Plasmodium chabaudi ASS at 3 mg/kg, po qd for 4 days starting from 4 hrs post-parasite inoculation and measured at 24 hrs post-dosing on day 4 by LC/MS analysis; assay type: ADME, organism-based; conditions: dose 3 mg/kg/day, time 4 day
[5] = Plasma concentration in NIH mouse infected with Plasmodium chabaudi ASS at 10 mg/kg, po qd for 4 days starting from 4 hrs post-parasite inoculation and measured at 6 hrs post-dosing on day 4 by LC/MS analysis; assay type: ADME, organism-based; conditions: dose 10 mg/kg/day, time 4 day
Plasmodium falciparum [6] = assay: Inhibition of Plasmodium falciparum plasmepsin 4 using PM-2 peptide substrate incubated for 60 mis by fluorescence based assay; conditions: time 60.0 min
[7] = Plasma concentration in NIH mouse infected with Plasmodium chabaudi ASS at 10 mg/kg, po qd for 4 days starting from 4 hrs post-parasite inoculation and measured at 1 hr post-dosing on day 4 by LC/MS analysis; assay type: ADME, organism-based; conditions: dose 10 mg/kg/day, time 4 day
[8] = Plasma concentration in NIH mouse infected with Plasmodium chabaudi ASS at 30 mg/kg, po qd for 4 days starting from 4 hrs post-parasite inoculation and measured at 6 hrs post-dosing on day 4 by LC/MS analysis; assay type: ADME, organism-based; conditions: dose 30 mg/kg/day, time 4 day
[9] = Plasma concentration in NIH mouse infected with Plasmodium chabaudi ASS at 30 mg/kg, po qd for 4 days starting from 4 hrs post-parasite inoculation and measured at 24 hrs post-dosing on day 4 by LC/MS analysis; assay type: ADME, organism-based; conditions: dose 30 mg/kg/day, time 4 day
Cytochrome P450 2D6 = Cytochrome P450 2D6 (Homo sapiens, UniProt P10635); assay: Inhibition of recombinant human CYP2D6 expressed in baculovirus infected insect cells using dextromethorphan as substrate incubated for 30 mins in presence of NADPH-regenerating system by fluorescence based assay; assay type: ADME
Chain of Cytochrome P450 2D6 (P10635 whole entry): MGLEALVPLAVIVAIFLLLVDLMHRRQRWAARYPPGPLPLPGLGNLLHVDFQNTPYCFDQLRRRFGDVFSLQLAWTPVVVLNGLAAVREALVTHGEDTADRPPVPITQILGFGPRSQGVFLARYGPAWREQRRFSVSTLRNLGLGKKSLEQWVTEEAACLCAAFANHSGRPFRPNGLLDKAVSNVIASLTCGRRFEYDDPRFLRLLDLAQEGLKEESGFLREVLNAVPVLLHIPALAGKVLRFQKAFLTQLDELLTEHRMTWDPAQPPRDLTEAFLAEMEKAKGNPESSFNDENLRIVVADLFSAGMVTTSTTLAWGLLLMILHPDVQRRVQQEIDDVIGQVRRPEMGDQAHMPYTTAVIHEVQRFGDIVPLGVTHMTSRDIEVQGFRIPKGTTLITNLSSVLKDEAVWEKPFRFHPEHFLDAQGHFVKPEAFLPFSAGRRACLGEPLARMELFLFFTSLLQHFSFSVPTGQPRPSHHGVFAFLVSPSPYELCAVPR

[10] = target: Beta-secretase 1 (Homo sapiens) (UniProt P56817); assay: Inhibition of recombinant human BACE1 using Mca-SEVNLDAEFRK(Dnp)RR-NH2 fluorogenic peptide as substrate incubated for 60 mis by fluorescence based assay; conditions: time 60.0 min
Chain of Beta-secretase 1 (Homo sapiens) (P56817 whole entry): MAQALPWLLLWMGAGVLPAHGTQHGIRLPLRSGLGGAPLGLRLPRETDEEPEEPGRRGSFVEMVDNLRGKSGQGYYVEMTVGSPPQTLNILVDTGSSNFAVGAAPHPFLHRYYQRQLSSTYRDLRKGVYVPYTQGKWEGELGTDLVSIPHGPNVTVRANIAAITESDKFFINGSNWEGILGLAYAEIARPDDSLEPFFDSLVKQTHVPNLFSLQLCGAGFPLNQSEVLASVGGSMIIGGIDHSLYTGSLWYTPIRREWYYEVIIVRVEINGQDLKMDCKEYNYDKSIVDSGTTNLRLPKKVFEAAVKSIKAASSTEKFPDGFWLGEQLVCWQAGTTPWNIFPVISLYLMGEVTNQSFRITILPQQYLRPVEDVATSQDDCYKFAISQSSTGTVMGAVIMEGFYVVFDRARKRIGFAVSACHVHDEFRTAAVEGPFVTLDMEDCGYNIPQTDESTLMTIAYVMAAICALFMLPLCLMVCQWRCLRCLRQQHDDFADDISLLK

Plasmodium chabaudi [11] = assay: Antimalarial activity against Plasmodium chabaudi ASS infected po dosed NIH mouse assessed as inhibition of parasitemia administered oce daily for 4 days starting from 4 hrs post parasite-inoculation and measured at 24 hrs post-last treatment by Peter's 4-day suppressive test; assay type: functional; conditions: 96 h
Cytochrome P450 1A2 = target: T1, Cytochrome P450 1A2 (Homo sapiens, UniProt P05177); assay: Inhibition of recombinant human CYP1A2 expressed in baculovirus infected insect cells using phenacetin as substrate incubated for 30 mins in presence of NADPH-regenerating system by fluorescence based assay; assay type: ADME
T1 sequence (P05177 whole entry): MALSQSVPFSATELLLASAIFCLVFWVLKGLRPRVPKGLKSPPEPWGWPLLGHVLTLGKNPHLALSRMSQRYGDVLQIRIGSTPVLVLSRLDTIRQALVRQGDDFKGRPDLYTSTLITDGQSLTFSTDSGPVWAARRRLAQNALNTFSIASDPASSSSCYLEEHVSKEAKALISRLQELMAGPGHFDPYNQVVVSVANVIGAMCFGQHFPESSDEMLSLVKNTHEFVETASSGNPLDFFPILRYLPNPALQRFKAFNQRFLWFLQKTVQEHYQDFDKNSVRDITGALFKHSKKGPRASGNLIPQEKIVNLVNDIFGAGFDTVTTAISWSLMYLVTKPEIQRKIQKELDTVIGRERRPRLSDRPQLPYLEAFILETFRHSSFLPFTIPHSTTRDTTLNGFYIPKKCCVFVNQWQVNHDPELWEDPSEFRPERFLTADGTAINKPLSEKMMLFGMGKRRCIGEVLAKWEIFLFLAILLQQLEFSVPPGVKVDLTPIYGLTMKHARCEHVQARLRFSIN

[12] = Plasma concentration in NIH mouse infected with Plasmodium chabaudi ASS at 3 mg/kg, po qd for 4 days starting from 4 hrs post-parasite inoculation and measured at 6 hrs post-dosing on day 4 by LC/MS analysis; assay type: ADME, organism-based; conditions: dose 3 mg/kg/day, time 4 day
[13] = Apparent clearance in KM mouse at 2 mg/kg, iv administered as cassette dosing measured up to 24 hrs by LC/MS analysis; assay type: ADME, organism-based; conditions: in vivo
[14] = Apparent volume of distribution in KM mouse at 2 mg/kg, iv administered as cassette dosing measured up to 24 hrs by LC/MS analysis; assay type: ADME, organism-based; conditions: in vivo, read-out: Vz
HepG2 [15] = assay: Cytotoxicity against human HepG2 cells assessed as cell viability at 50 uM incubated for 72 hrs by PrestoBlue cell viability reagent based assay; conditions: hepg2, 72 h
Plasmodium falciparum [16] = assay: Antimalarial activity against multidrug resistant Plasmodium falciparum Dd2 incubated for 72 hrs by SYBR Green-1 dye based fluorescence assay; assay type: functional, organism-based; conditions: Dd2, 72 h
[17] = Plasma concentration in NIH mouse infected with Plasmodium chabaudi ASS at 30 mg/kg, po qd for 4 days starting from 4 hrs post-parasite inoculation and measured at 1 hr post-dosing on day 4 by LC/MS analysis; assay type: ADME, organism-based; conditions: dose 30 mg/kg/day, time 4 day
Cytochrome P450 3A4 = Cytochrome P450 3A4 (Homo sapiens, UniProt P08684); assay: Inhibition of recombinant human CYP3A4 expressed in baculovirus infected insect cells using midazolam as substrate incubated for 30 mins in presence of NADPH-regenerating system by fluorescence based assay; assay type: ADME
Chain of Cytochrome P450 3A4 (P08684 whole entry): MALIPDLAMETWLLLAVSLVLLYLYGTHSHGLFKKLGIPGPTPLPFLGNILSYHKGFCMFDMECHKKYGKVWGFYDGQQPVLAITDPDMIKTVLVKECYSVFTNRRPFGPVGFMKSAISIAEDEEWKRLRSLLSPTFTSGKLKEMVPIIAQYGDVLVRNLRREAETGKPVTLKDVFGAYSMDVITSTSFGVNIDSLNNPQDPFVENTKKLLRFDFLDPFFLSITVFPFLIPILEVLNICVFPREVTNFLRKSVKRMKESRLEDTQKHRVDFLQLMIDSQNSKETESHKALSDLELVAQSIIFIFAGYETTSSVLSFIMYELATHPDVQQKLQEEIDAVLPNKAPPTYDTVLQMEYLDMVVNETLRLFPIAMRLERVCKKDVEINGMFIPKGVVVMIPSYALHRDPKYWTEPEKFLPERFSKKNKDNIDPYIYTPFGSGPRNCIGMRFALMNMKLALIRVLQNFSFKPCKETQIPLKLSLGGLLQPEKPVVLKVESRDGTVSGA

HepG2 [18] = assay: Cytotoxicity against human HepG2 cells assessed as cell viability at 5 uM incubated for 72 hrs by PrestoBlue cell viability reagent based assay; conditions: hepg2, 72 h
Plasmodium chabaudi [19] = assay: Antimalarial activity against Plasmodium chabaudi ASS infected in NIH mouse assessed as inhibition of parasitemia at 10 mg/kg, po qd for 4 days starting from 4 hrs post-parasite inoculation and measured at 24 hrs after last-drug treatment by Peter's 4-day suppressive test relative to control; assay type: functional; conditions: 96 h
Cytochrome P450 2C9 = Cytochrome P450 2C9 (Homo sapiens, UniProt P11712); assay: Inhibition of recombinant human CYP2C9 expressed in baculovirus infected insect cells using tolbutamide as substrate incubated for 30 mins in presence of NADPH-regenerating system by fluorescence based assay; assay type: ADME
Chain of Cytochrome P450 2C9 (P11712 whole entry): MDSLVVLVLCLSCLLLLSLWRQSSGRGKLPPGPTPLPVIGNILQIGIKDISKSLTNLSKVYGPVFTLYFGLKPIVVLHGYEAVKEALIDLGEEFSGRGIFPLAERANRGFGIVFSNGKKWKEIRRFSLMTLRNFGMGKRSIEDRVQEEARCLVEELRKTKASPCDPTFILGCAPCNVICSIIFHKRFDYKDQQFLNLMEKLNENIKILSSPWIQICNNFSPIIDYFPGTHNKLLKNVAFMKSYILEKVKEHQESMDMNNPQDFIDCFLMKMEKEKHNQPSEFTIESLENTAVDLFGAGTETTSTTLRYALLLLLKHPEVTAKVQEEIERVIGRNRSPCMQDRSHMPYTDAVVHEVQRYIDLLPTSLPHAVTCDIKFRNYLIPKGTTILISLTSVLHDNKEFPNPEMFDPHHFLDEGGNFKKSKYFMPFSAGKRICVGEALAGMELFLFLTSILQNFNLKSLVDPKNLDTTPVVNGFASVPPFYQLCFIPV

[20] = target: Plasmepsin II (Plasmodium falciparum) (UniProt P46925); assay: Inhibition of Plasmodium falciparum plasmepsin 2 using PM-2 peptide substrate incubated for 60 mis by fluorescence based assay; conditions: time 60.0 min
Chain of Plasmepsin II (Plasmodium falciparum) (P46925 125-453 limits assumed): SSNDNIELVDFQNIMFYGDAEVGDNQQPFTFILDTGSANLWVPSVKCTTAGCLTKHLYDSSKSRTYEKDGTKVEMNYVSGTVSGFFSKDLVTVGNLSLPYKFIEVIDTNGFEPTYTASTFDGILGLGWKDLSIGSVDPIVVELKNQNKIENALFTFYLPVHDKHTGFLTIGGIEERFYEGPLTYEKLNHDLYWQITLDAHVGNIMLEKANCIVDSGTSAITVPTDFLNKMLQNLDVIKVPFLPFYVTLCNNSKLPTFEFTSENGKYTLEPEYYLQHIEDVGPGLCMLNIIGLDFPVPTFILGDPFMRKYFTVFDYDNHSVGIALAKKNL

[21] = Plasma concentration in NIH mouse infected with Plasmodium chabaudi ASS at 3 mg/kg, po qd for 4 days starting from 4 hrs post-parasite inoculation and measured at 1 hr post-dosing on day 4 by LC/MS analysis; assay type: ADME, organism-based; conditions: dose 3 mg/kg/day, time 4 day
Plasmodium chabaudi [22] = assay: Antimalarial activity against Plasmodium chabaudi ASS infected in NIH mouse assessed as inhibition of parasitemia at 3 mg/kg, po qd for 4 days starting from 4 hrs post-parasite inoculation and measured at 24 hrs after last-drug treatment by Peter's 4-day suppressive test relative to control; assay type: functional; conditions: 96 h
[23] = Half life in KM mouse at 2 mg/kg, iv administered as cassette dosing measured up to 24 hrs by LC/MS analysis; assay type: ADME, organism-based; conditions: in vivo
[24] = Ratio of IC50 for antimalarial activity against CQ-sensitive Plasmodium falciparum 3D7 incubated for 72 hrs by SYBR Green-1 dye based fluorescence assay to Plasma concentration in NIH mouse infected with Plasmodium chabaudi ASS at 10 mg/kg, po qd for 4 days starting from 4 hrs post-parasite inoculation and measured at 24 hrs post-dosing on day 4 by LC/MS analysis
[25] = target: Voltage-gated inwardly rectifying potassium channel KCNH2 (Homo sapiens, UniProt Q12809); assay: Displacement of Tracer Red from human ERG incubated for 2 hrs by fluorescence polarization assay
Chain of Voltage-gated inwardly rectifying potassium channel KCNH2 (Q12809 whole entry): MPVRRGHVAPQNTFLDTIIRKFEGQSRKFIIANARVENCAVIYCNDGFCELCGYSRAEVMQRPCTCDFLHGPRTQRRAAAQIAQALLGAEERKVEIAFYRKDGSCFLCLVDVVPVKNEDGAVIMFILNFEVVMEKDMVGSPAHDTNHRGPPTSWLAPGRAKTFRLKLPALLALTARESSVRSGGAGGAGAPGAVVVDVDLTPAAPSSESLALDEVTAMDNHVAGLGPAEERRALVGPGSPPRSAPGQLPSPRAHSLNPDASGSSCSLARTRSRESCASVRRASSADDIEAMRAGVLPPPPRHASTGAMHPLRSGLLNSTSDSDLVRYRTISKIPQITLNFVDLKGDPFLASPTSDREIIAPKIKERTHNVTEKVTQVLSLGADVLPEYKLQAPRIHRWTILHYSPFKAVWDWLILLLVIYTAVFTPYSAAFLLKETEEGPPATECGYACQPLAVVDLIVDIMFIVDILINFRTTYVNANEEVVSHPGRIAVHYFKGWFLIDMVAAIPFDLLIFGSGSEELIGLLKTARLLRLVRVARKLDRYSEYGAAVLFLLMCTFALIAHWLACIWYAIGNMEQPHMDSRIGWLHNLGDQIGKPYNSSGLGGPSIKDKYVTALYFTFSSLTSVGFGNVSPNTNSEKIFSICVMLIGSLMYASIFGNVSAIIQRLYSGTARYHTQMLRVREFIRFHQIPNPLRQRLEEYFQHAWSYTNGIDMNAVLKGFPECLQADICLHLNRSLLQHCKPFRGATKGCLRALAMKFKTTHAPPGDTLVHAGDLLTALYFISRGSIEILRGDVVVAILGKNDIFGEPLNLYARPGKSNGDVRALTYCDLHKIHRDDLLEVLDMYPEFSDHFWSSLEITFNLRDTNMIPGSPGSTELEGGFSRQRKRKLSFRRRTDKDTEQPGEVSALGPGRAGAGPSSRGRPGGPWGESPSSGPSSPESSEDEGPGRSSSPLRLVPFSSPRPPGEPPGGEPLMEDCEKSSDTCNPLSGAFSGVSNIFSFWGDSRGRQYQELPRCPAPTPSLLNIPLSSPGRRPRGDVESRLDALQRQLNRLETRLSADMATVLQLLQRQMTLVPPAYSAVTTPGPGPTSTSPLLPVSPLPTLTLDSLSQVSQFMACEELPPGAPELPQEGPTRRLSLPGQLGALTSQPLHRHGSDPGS

hERG = assay: Selectivity ratio of IC50 for human ERG incubated for 2 hrs by fluorescence polarization assay to IC50 for CQ-sensitive Plasmodium falciparum 3D7 incubated for 72 hrs by SYBR Green-1 dye based fluorescence assay; assay type: toxicity; conditions: read-out: Ratio IC50

Row | SMILES | pIC50 (Cytochrome P450 2C19) | concentration at 96 h [1] | pIC50 (Plasmodium falciparum [2]) | concentration at 96 h [5] | inhibition (Plasmodium falciparum [6]) | concentration at 96 h [7] | pIC50 (Cytochrome P450 2D6) | inhibition [10] | pIC50 (Cytochrome P450 1A2) | clearance [13] | Vd [14] | pIC50 (Plasmodium falciparum [16]) | pIC50 (Cytochrome P450 3A4) | Activity (HepG2 [18]) | inhibition in vivo at 10 mg/kg/day (Plasmodium chabaudi [19]) | pIC50 (Cytochrome P450 2C9) | inhibition [20] | half-life [23] | also measured
1 | CN(C)c1ccc(CC(=O)N[C@@H]2CNC[C@H]2c2ccc(C(C)(F)F)cc2)cc1 | 4.30 | 1.7 nM | 7.29 | 48.9 nM | inactive | 389 nM | 4.39 | inactive | < 4.00 | 13.8 mL/min/kg | 2.1 L/kg | 7.28 | 5.60 | Non-Toxic | 94.1% | < 4.00 | inactive | 2.7 h | inhibition in vivo at 30 mg/kg/day (Plasmodium chabaudi [3]): 99.9%; concentration at 96 h [4]: 6.6 nM; concentration at 96 h [8]: 1150 nM; concentration at 96 h [9]: 28.5 nM; ED90 (Plasmodium chabaudi [11]): < 10 mg/kg/day; ED99 (Plasmodium chabaudi [11]): 30 mg/kg/day; concentration at 96 h [12]: 34.1 nM; Activity (HepG2 [15]): Non-Toxic; concentration at 96 h [17]: 1310 nM; concentration at 96 h [21]: 114 nM; inhibition in vivo at 3 mg/kg/day (Plasmodium chabaudi [22]): 34%
2 | CN(C)c1ccc(CC(=O)N[C@@H]2CNC[C@H]2c2ccc(C(F)(F)F)cc2)cc1 | 4.34 | 7.4 nM | 6.92 | 181 nM | inactive | 255 nM | 4.61 | inactive | < 4.00 | 7.9 mL/min/kg | 4.2 L/kg | 7.11 | 6.06 | Non-Toxic | 61.2% | 4.01 | inactive | 5.6 h | Ratio [24]: 6; pIC50 [25]: 5.23; selectivity ratio at 2 h (hERG): 49
